Source: patent US12458021B2, “Microbiocidal derivatives” (SYNGENTA CROP PROTECTION AG, priority 2019, dated 2025)

How the values were obtained:
[1] = system: Monographella nivalis (Microdochium nivale); assay: Monographella nivalis (Microdochium nivale) / liquid culture (foot rot cereals); type: cell-based; details: PDB potato dextrose broth, 24° C., 4-5 days after application, read-out: control of Monographella nivalis (inhibition of growth, photometric)
Procedure, shortened: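 Growth inhibition measured by photometry 4-5 days post-application at 24° C. Compound was dispensed as DMSO solution, then PDB broth containing conidia from cryogenic storage was added.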

[2] = system: Magnaporthe grisea (Pyricularia oryzae); assay: whole plant or invertebrate; type: in vivo; details: foliar, read-out: control of Magnaporthe grisea (percent disease control compared to untreated)
[3] = system: Pyrenophora teres; assay: Pyrenophora teres / barley / leaf disc preventative (net blotch); type: in vivo; details: foliar, barley leaf segments cv. Hasso, inoculated 2 days after application, assessed 5-7 days after application, read-out: control of Pyrenophora teres (disease control compared to untreated)
Procedure, shortened: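 Barley cv. Hasso leaf discs on agar were sprayed with diluted formulated compound, then inoculated with spore suspension 2 days later. Incubation at 20 °C, 65% rh, 12 h light/dark; disease control versus untreated assessed 5-7 days after application.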

[4] = system: Puccinia recondita f. sp. tritici; assay: Puccinia recondita f. sp. tritici / wheat / leaf disc curative (brown rust); type: in vivo; details: foliar, wheat leaf segments cv. Kanzler, compound applied 1 day after inoculation, assessed 6-8 days after application, read-out: control of Puccinia recondita f. sp. tritici, curative (percent disease control compared to untreated)
Description: Example B10: Puccinia recondita f. sp. tritici/Wheat/Leaf Disc Curative (Brown Rust) Wheat leaf segments cv. Kanzler are placed on agar in multiwell plates (24-well format). The leaf segments are inoculated with a spore suspension of the fungus. Plates are stored in darkness at 19° C. and 75% rh. The formulated test compound diluted in water is applied 1 day after inoculation. […] […]-185.

[5] = system: Sclerotinia sclerotiorum; assay: Sclerotinia sclerotiorum / liquid culture (cottony rot); type: cell-based; details: PDB potato dextrose broth, mycelia fragments, 24° C., 3-4 days after application, read-out: control of Sclerotinia sclerotiorum (inhibition of growth, photometric)
Description: Example B14: Sclerotinia sclerotiorum/Liquid Culture (Cottony Rot) Mycelia fragments of a newly grown liquid culture of the fungus are directly mixed into nutrient broth (PDB potato dextrose broth). After placing a (DMSO) solution of test compound into a microtiter plate (96-well format) the nutrient broth containing the fungal material is added. The test plates are incubated at 24° C. and the inhibition of growth is determined photometrically 3-4 days after application.

[6] = system: Phaeosphaeria nodorum (Septoria nodorum); assay: Phaeosphaeria nodorum (Septoria nodorum) / wheat / leaf disc preventative (glume blotch); type: in vivo; details: Parastagonospora nodorum, foliar, wheat leaf segments cv. Kanzler, inoculated 2 days after application, assessed 5-7 days after application, read-out: control of Phaeosphaeria nodorum (percent disease control compared to untreated)
Procedure, shortened: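 Wheat cv. Kanzler leaf discs on agar were sprayed with formulated compound diluted in water and inoculated with spores 2 days later. Discs were kept at 20° C, 75% rh, 12 h light/dark; percent disease control versus untreated was scored 5-7 days after application.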

[7] = system: Mycosphaerella graminicola (Septoria tritici); assay: Mycosphaerella graminicola (Septoria tritici) / liquid culture (Septoria blotch); type: cell-based; details: Zymoseptoria tritici, PDB potato dextrose broth, 24° C., 4-5 days after application, read-out: control of Mycosphaerella graminicola (inhibition of growth, photometric)
Procedure, shortened: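 Fungal growth inhibition was read photometrically 4-5 days after application. Compound was dosed from a DMSO solution into liquid cultures of spores in potato dextrose broth, incubated at 24° C.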

[8] = system: Puccinia recondita f. sp. tritici; assay: Puccinia recondita f. sp. tritici / wheat / leaf disc preventative (brown rust); type: in vivo; details: foliar, wheat leaf segments cv. Kanzler, inoculated 1 day after application, assessed 7-9 days after application, read-out: control of Puccinia recondita f. sp. tritici, preventative (percent disease control compared to untreated)
Procedure, shortened: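 Wheat leaf segments (cv. Kanzler) on agar were sprayed with formulated compound, then inoculated with spores 1 day later. Segments were incubated at 19 °C, 75% rh with 12 h light/dark. Percent disease control versus untreated was scored 7–9 days after application.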

[9] = system: Alternaria solani; assay: Alternaria solani / tomato / leaf disc (early blight); type: in vivo; details: foliar, tomato leaf disks cv. Baby, inoculated 2 days after application, assessed 5-7 days after application, read-out: control of Alternaria solani (percent disease control compared to untreated)
Description: Example B1: Alternaria solani/Tomato/Leaf Disc (Early Blight) Tomato leaf disks cv. Baby are placed on agar in multiwell plates (24-well format) and sprayed with the formulated test compound diluted in water. The leaf disks are inoculated with a spore suspension of the fungus 2 days after application. The inoculated leaf disks are incubated at 23° C./21° C. […] […]-185.

[10] = system: Blumeria graminis f. sp. tritici (Erysiphe graminis f. sp. tritici); assay: Blumeria graminis f. sp. tritici / wheat / leaf disc preventative (powdery mildew on wheat); type: in vivo; details: foliar, wheat leaf segments cv. Kanzler, inoculated 1 day after application, assessed 6-8 days after application, read-out: control of Blumeria graminis f. sp. tritici (percent disease control compared to untreated)
From the text: Example B4: Blumeria graminis f. sp. tritici (Erysiphe graminis f. sp. tritici)/Wheat/Leaf Disc Preventative (Powdery Mildew on Wheat) Wheat leaf segments cv. Kanzler are placed on agar in a multiwell plate (24-well format) and sprayed with the formulated test compound diluted in water. The leaf disks are inoculated by shaking powdery mildew infected plants above the test plates 1 day after application. […] […]-192.

[11] = system: Glomerella lagenarium (Colletotrichum lagenarium); assay: Glomerella lagenarium (Colletotrichum lagenarium) / liquid culture (anthracnose); type: cell-based; details: Colletotrichum orbiculare, PDB potato dextrose broth, 24° C., 3-4 days after application, read-out: control of Glomerella lagenarium (inhibition of growth, photometric)
Procedure, shortened: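 Fungal growth inhibition measured photometrically 3-4 days post-application at 24° C. Spores were mixed directly into potato dextrose broth and dispensed onto test compound supplied in DMSO.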

[12] = system: Mycosphaerella arachidis (Cercospora arachidicola); assay: Mycosphaerella arachidis (Cercospora arachidicola) / liquid culture (early leaf spot); type: cell-based; details: PDB potato dextrose broth, 24° C., 4-5 days after application, read-out: control of Mycosphaerella arachidis (inhibition of growth, photometric)
Procedure, shortened: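 Conidia from cryogenic storage suspended in potato dextrose broth and added to compound in DMSO. Incubation at 24° C; growth inhibition read photometrically 4-5 days after application.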

[13] = system: Botryotinia fuckeliana (Botrytis cinerea); assay: Botryotinia fuckeliana (Botrytis cinerea) / liquid culture (gray mould); type: cell-based; details: Vogels broth, 24° C., 3-4 days after application, read-out: control of Botryotinia fuckeliana (inhibition of growth, photometric)
Procedure, shortened: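 Botrytis cinerea conidia in Vogels broth were added to compound supplied as DMSO solution. Plates were incubated at 24 °C, and growth inhibition was read photometrically 3-4 days after application.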

[14] = system: Fusarium culmorum; assay: microbe, parasite or virus in culture; type: cell-based; details: read-out: control of Fusarium culmorum (inhibition of growth, photometric)

COc1ccc(Nc2cc(F)nc(F)c2)nc1C(=O)NC1CCC1(C)C (stereo not drawn) [Compound P-4, 6-[(2,6-difluoro-4-pyridyl)amino]-N-(2,2-dimethylcyclobutyl)-3-methoxy-pyridine-2-carboxamide]
≥ 80%: inhibition at 20 ppm [1] | pest or weed control at 200 ppm [2] | pest or weed control at 200 ppm [3] | pest or weed control at 200 ppm [4] | inhibition at 20 ppm [5] | pest or weed control at 200 ppm [6] | inhibition at 20 ppm [7] | pest or weed control at 200 ppm [8] | pest or weed control at 200 ppm [9] | pest or weed control at 200 ppm [10] | inhibition at 20 ppm [11]

COc1ccc(Nc2cc(F)cc(F)c2)nc1C(=O)NC(C)(C)C [Compound P-93, N-tert-butyl-6-(3,5-difluoroanilino)-3-methoxy-pyridine-2-carboxamide]
≥ 80%: inhibition at 20 ppm [12] | inhibition at 20 ppm [1] | pest or weed control at 200 ppm [2] | pest or weed control at 200 ppm [3] | pest or weed control at 200 ppm [4] | pest or weed control at 200 ppm [6] | inhibition at 20 ppm [7] | pest or weed control at 200 ppm [8] | inhibition at 20 ppm [13] | pest or weed control at 200 ppm [9] | pest or weed control at 200 ppm [10] | inhibition at 20 ppm [11]

COc1ccc(Nc2cc(F)nc(F)c2)nc1C(=O)NC1(C)CCCC1 [Compound P-109, 6-[(2,6-difluoro-4-pyridyl)amino]-3-methoxy-N-(1-methylcyclopentyl)pyridine-2-carboxamide]
≥ 80%: inhibition at 20 ppm [1] | pest or weed control at 200 ppm [2] | pest or weed control at 200 ppm [3] | pest or weed control at 200 ppm [4] | inhibition at 20 ppm [5] | inhibition at 20 ppm [7] | pest or weed control at 200 ppm [8] | pest or weed control at 200 ppm [9] | pest or weed control at 200 ppm [10] | inhibition at 20 ppm [11]

COc1ccc(Nc2cc(F)cc(F)c2)nc1C(=O)NC1(C)CCC1 [Compound P-118, 6-(3,5-difluoroanilino)-3-methoxy-N-(1-methylcyclobutyl)pyridine-2-carboxamide]
≥ 80%: inhibition at 20 ppm [12] | inhibition at 20 ppm [1] | pest or weed control at 200 ppm [2] | pest or weed control at 200 ppm [3] | pest or weed control at 200 ppm [4] | pest or weed control at 200 ppm [6] | inhibition at 20 ppm [7] | pest or weed control at 200 ppm [8] | inhibition at 20 ppm [13] | pest or weed control at 200 ppm [9] | pest or weed control at 200 ppm [10] | inhibition at 20 ppm [11]

COc1ccc(Nc2cccc(F)c2)nc1C(=O)NC(C)(C)C [Compound P-160, N-tert-butyl-6-(3-fluoroanilino)-3-methoxy-pyridine-2-carboxamide]
≥ 80%: inhibition at 20 ppm [12] | inhibition at 20 ppm [1] | pest or weed control at 200 ppm [2] | pest or weed control at 200 ppm [3] | pest or weed control at 200 ppm [4] | inhibition at 20 ppm [5] | pest or weed control at 200 ppm [6] | inhibition at 20 ppm [7] | pest or weed control at 200 ppm [8] | inhibition at 20 ppm [13] | pest or weed control at 200 ppm [9] | pest or weed control at 200 ppm [10] | inhibition at 20 ppm [11]

COc1ccc(Nc2cc(F)c(F)c(F)c2)nc1C(=O)NC(C)(C)C [Compound P-162, N-tert-butyl-3-methoxy-6-(3,4,5-trifluoroanilino)pyridine-2-carboxamide]
≥ 80%: inhibition at 20 ppm [12] | inhibition at 20 ppm [1] | pest or weed control at 200 ppm [2] | pest or weed control at 200 ppm [3] | pest or weed control at 200 ppm [4] | inhibition at 20 ppm [5] | inhibition at 20 ppm [7] | pest or weed control at 200 ppm [8] | inhibition at 20 ppm [13] | pest or weed control at 200 ppm [9] | pest or weed control at 200 ppm [10] | inhibition at 20 ppm [11]

COc1ccc(Nc2cc(F)cc(F)c2)nc1C(=O)NC(C)C(C)C (stereo not drawn) [Compound P-168, 6-(3,5-difluoroanilino)-N-(1,2-dimethylpropyl)-3-methoxy-pyridine-2-carboxamide]
≥ 80%: inhibition at 20 ppm [12] | inhibition at 20 ppm [14] | inhibition at 20 ppm [1] | pest or weed control at 200 ppm [3] | inhibition at 20 ppm [7] | pest or weed control at 200 ppm [8] | inhibition at 20 ppm [13] | pest or weed control at 200 ppm [10] | inhibition at 20 ppm [11]

COc1ccc(Nc2cc(F)cc(F)c2)nc1C(=O)NC1(C2CCC2)CCC1 [Compound P-176, N-(1-cyclobutylcyclobutyl)-6-(3,5-difluoroanilino)-3-methoxy-pyridine-2-carboxamide]
≥ 80%: inhibition at 20 ppm [12] | inhibition at 20 ppm [14] | inhibition at 20 ppm [1] | pest or weed control at 200 ppm [3] | pest or weed control at 200 ppm [6] | inhibition at 20 ppm [7] | pest or weed control at 200 ppm [8] | inhibition at 20 ppm [13] | pest or weed control at 200 ppm [9] | pest or weed control at 200 ppm [10] | inhibition at 20 ppm [11]
